Consider one compound from US12606543B2, “Indole derivatives as serotonergic agents useful for the treatment of disorders related thereto” (priority 2023, dated 2026).

Read-outs that look alike come from different tables or passages of the source.

Data set [1] is described as follows: Pharmacokinetic studies in rat (i.v.). Format: in vivo. The note with it: male, Sprague-Dawley, plasma; for concentration at 0.25 h / concentration at 1 h / concentration at 4 h: intravenous, dose per Dose column (1.32-2.09 mg/kg); for half-life / AUC(0-t): iv, rat plasma, i.v., dose per Dose column; for half-life: estimated from 2 points only. Here is the method:
Animals: Male Sprague-Dawley rats (˜225-350 g) from Charles River Labs were acclimatized for a minimum of 5 days prior to start of study procedures. Body weights were recorded on the day of dosing.
Any abnormalities were documented including presence/absence of wet dog shakes/back muscle contractions (WDS/BMC).
Dosing: Formulations were administered intravenously (i.v.) via the tail vein using a 25 G needle connected to a 1 cc syringe.
The exemplary compounds of Formula (I) were freshly prepared at the appropriate concentrations in 5% Tween-80 in saline.
Blood collection time (h): 0, […], 1 and 4
Volume/time-point: ˜0.25 mL (saphenous vein)
Instrumentation: AB Sciex QTRAP 4000 or 6500 MS/MS system equipped with an LC system with a binary pump, a solvent degasser, a thermostated column compartment, and a multiplate autosampler.
Analysis software: Phoenix® WinNonlin® 8.3 (Pharsight, Certara, Mountainview, CA).
Analysis methods: non-compartmental analysis, linear up/log down trapezoidal rule.
PK parameters: t1/2 and AUC0-tlast was estimated.
The Compounds of Formula (I) were freshly prepared at the appropriate concentrations in 5% Tween-80 in saline.
Instrumentation: AB Sciex QTRAP 4000 or 6500 MS/MS system equipped with an LC system with a binary pump, a solvent degasser, a thermostated column compartment and a multiplate autosampler.
PK parameters: t1/2 and AUC0-tlast will be estimated.

Data set [2] concerns the target T1, human 5-HT2B receptor (Homo sapiens, UniProt P41595). As to the kind of experiment: Human 5-HT2B FLIPR calcium mobilization assay. Format: cell-based. Details: expressed in transfected cells; host or cells: HEK293. The note with it: calcium mobilization FLIPR. Here is the method: Compound potency (EC50) and efficacy (Max response) against the human 5-HT2B receptor in stably transfected HEK293 cells were determined in a calcium mobilization-based assay.
Cells were seeded in a total volume of 20 μL into white walled, 384-well microplates and incubated at 37° C. overnight. Prior to testing, cell plating media was exchanged with 20 μL of Dye Loading buffer (HBSS+20 mM HEPES containing 1× Dye, 1× Additive A, and 2.5 mM Probenecid). Plates were incubated at 37° C. for 45 mins followed by 15 mins at room temperature.
10 μL of assay buffer (HBSS+20 mM HEPES) were added to cells. Intermediate dilution of sample stocks was performed to generate 4× samples in assay buffer. Assay plates and compound plates were loaded into the FLIPR instrument. 10 μL of sample was added using the FLIPR onboard robotics after 5 seconds of starting calcium measurement. A final assay vehicle concentration was 1%. The results are expressed as percent efficacy relative to the maximum response of the control ligand (serotonin) in Table 12.
Compound potency (EC50) and efficacy (Max response) against the human 5-HT2B receptor in stably transfected HE K293 cells was determined in a calcium mobilization-based assay.
10 μL of assay buffer (HBSS+20 mM HEPES) was added to cells. Intermediate dilution of sample stocks was performed to generate 4× samples in assay buffer. Assay plates and compound plates were loaded into the FLIPR instrument. 10 μL of samples were added using the FLIPR onboard robotics after 5 secs of starting calcium measurement. The final assay vehicle concentration was 1%. The results are expressed as percent efficacy relative to the maximum response of the control ligand (serotonin) in Table 62.

In data set [3] the target is T1, human 5-HT2B receptor. As to the kind of experiment: Human 5-HT2B radioligand binding assay ([3H]-LSD). The note with it: [3H]-LSD displacement, cell membrane, 37° C., 90 min. How it is done: The objective of this study was to evaluate the binding properties of test compounds on 5-HT2B.
1) The assay buffer was prepared following Table 29 below.
2) Eight doses of reference and test compounds starting from 10 mM stock solution as requested by 5-fold serial dilutions with 100% (v/v) DMSO.
3) UniFilter-96 GF/B plate was pretreated: • a. 50 μL/well of 0.5% (v/v) PEI to UniFilter-96 GF/B plates. The plates were sealed and incubated at 4° C. for 3 hrs. • b. After incubation, the plates were washed 3 times with ice-cold wash buffer (50 mM Tris, pH 7.4).
4) Assay plate preparation: • a. Cell membrane was diluted with assay buffer and 330 μL/well added to 96 round deep well plates to reach a concentration of 1 unit/well. • b. Eight concentrations of reference or test compounds were prepared and 110 μL/well added to 96 round deep well plates. • c. [3H]-LSD was diluted with assay buffer to 5 nM (5× final concentration) and 110 μL/well was added to 96 round deep well plates.
5) The plate was centrifuged at 1000 rpm for 30 secs and then agitated at 600 rpm at room temperature for 5 mins.
6) The plates were sealed and incubated at 37° C. for 90 mins.
7) The incubation was stopped by vacuum filtration onto GF/B filter plates followed by washing four times with ice-cold wash buffer (50 mM Tris, pH7.4).
9) The filter plates were sealed and 40 μL/well of scintillation cocktail was added.
10) The plate was read using a Microbeta2 microplate counter.
For reference and test compounds, the results are expressed as % Inhibition, using the normalization equation: N=100−100×(U−C2)/(C1−C2), where U is the unknown value, C1 is the average of high controls, and C2 is the average of low controls. The IC50 is determined by fitting percentage of inhibition as a function of compound concentrations with Hill equation.
The objective of this study is to evaluate the binding properties of test compounds on 5-HT2B.
1) The assay buffer was prepared following Table 59 below.
3) UniFilter-96 GF/B plate was pretreated: • a. 50 μL/well of 0.5% (v/v) PEI to UniFilter-96 GF/B plates. The plates were sealed and incubate at 4° C. for 3 hrs. • b. After incubation, the plates were washed three times with ice-cold wash buffer (50 mM Tris, pH7.4).
5) The plate was centrifuged at 1000 rpm for 30 secs and then agitated at 600 rpm at room temperature for 5 min.
8) The plates were dried at 37° C. for 45 mins.
10) The plate was read using a Microbeta^2 microplate counter.
For reference and test compounds, the results are expressed as % Inhibition, using the normalization equation: N=100−100×(U−C2)/(C1−C2), where U is the unknown value, C1 is the average of the high controls, and C2 is the average of the low controls. The IC50 is determined by fitting percentage of inhibition as a function of compound concentrations with Hill equation.

Setting [4] is: first animal (R07/R04/R01/R10), read-out: Plasma concentration.
Setting [5] is: mean of 3 rats, read-out: Plasma concentration, Mean ± SD.
Where [6] appears, read: second animal (R08/R05/R02/R11), read-out: Plasma concentration.
[7] abbreviates: third animal (R09/R06/R03/R12), read-out: Plasma concentration.

T1 sequence (P41595 whole entry): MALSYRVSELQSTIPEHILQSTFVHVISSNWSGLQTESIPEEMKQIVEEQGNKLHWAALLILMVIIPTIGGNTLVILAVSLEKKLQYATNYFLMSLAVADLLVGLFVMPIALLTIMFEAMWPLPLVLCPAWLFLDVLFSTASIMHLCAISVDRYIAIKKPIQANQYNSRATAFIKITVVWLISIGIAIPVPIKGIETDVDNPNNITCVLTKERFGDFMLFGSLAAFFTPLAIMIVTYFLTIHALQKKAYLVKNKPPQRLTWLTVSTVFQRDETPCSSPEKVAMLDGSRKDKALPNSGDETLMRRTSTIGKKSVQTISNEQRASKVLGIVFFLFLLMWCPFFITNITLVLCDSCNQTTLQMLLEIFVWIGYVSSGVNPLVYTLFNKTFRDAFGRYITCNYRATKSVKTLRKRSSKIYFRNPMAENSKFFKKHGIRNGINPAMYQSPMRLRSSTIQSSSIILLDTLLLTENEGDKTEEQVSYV

In general, EC50 refers to the concentration needed to bring the measured effect to its halfway point. By IC50 is commonly meant the point on the concentration scale where inhibition reaches its midpoint. The term Ki denotes the dissociation constant of the complex between target and ligand, obtained from inhibition or displacement. In the case of `COCCN1CCC[C@@H]1Cc1c[nH]c2ccc(OC)cc12` [(R) I-98, (R)-5-Methoxy-3-((1-(2-methoxyethyl)pyrrolidin-2-yl)methyl)-1H-indole], the concentration at 0.25 h was determined as 411 ng/mL in data set [1] (setting [4]), 446 ± 34.1 ng/mL in data set [1] (setting [5]), 479 ng/mL in data set [1] (setting [6]) and 449 ng/mL in data set [1] (setting [7]). In addition, the concentration at 1 h in data set [1] (setting [4]) is 128 ng/mL; in data set [1] (setting [5]) it was 113 ± 14.2 ng/mL; in data set [1] (setting [6]) it was 110 ng/mL; in data set [1] (setting [7]) it was 100 ng/mL. Moreover, the concentration at 4 h was determined as 2.48 ng/mL in data set [1] (setting [4]), 2.32 ± 0.139 ng/mL in data set [1] (setting [5]), 2.25 ng/mL in data set [1] (setting [6]) and 2.23 ng/mL in data set [1] (setting [7]). The half-life in data set [1] (first animal (R07/R04/R01/R10), read-out: Apparent t1/2 (converted)) was 30.8 min; in data set [1] (mean of 3 rats, read-out: Apparent t1/2, Mean ± SD (converted)), 30.4 ± 0.473 min; in data set [1] (second animal (R08/R05/R02/R11), read-out: Apparent t1/2 (converted)) it was 29.9 min; in data set [1] (third animal (R09/R06/R03/R12), read-out: Apparent t1/2 (converted)), 30.3 min. Also, the AUC(0-t) in data set [1] (first animal (R07/R04/R01/R10), read-out: AUC0-tlast) worked out at 403 ng·h/mL; in data set [1] (mean of 3 rats, read-out: AUC0-tlast, Mean ± SD), 409 ± 15.1 ng·h/mL; in data set [1] (second animal (R08/R05/R02/R11), read-out: AUC0-tlast), 426 ng·h/mL; in data set [1] (third animal (R09/R06/R03/R12), read-out: AUC0-tlast) it was 397 ng·h/mL. The “Emax (% of serotonin)” value on human 5-HT2B receptor [2] (HEK293 cells, relative to maximum response of serotonin) is on record as 52.7 % of serotonin. On human 5-HT2B receptor [2] (stably transfected HEK293 cells, read-out: EC50), the EC50 worked out at 2.88 nM. The IC50 on human 5-HT2B receptor [3] (read-out: 5-HT2B, IC50) was 45.6 nM. For the same compound, the Ki at human 5-HT2B receptor [3] (read-out: 5-HT2B, Ki) amounted to 23.6 nM.
